Measurements reported in patent US20070270418A1, “Inhibitors of P38 and Methods of Using the Same” (priority 2003, published 2007).

Tested on: TNFα release from THP-1 cells
Test: TNFα release from LPS-stimulated THP-1 cells
Type: cell-based
Details: Homo sapiens, THP-1, 18 h, LPS 10 μg/ml, 18 hours; read-out: TNFα (THP-1) IC50
Method in brief: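 THP-1 cells (10^6 cells/ml on resuspension) preincubated with compound 30 min at 37°C, 5% CO2, final DMSO ≤0.5%, then stimulated with 10 μg/ml LPS for 18 h (TNFα). Supernatants collected for TNFα analysis.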

Question: For Fc1ccc(-c2nc3occn3c2-c2ccnc(NC3CN4CCC3CC4)n2)cc1 (stereo not shown) [LXXXIV], which IC50 is on record?
Answer: 9.28 nM

Question: Which IC50 does the source give for Fc1ccc(-c2nc3occn3c2-c2ccnc(N[C@H]3CN4CCC3CC4)n2)cc1 [LXXXVII] here?
Answer: 1.87 nM

Target: T1, CDK2/cyclinA (Homo sapiens, UniProt P24941)
T1 construct: purchased Upstate (Charlottesville, Va.)
Test: Broad selectivity panel, 32P incorporation
Type: biochemical
Details: 0.1 μM compound, 40 μM ATP; read-out: Percent inhibition CDK2/cyclinA
Method: (§1) Various compounds of the present invention are screened against a panel of 24 additional kinases (Upstate, Charlottesville, Va.). Compounds are tested 0.1 μM and 1 μM in reactions containing 40 μM ATP. Incorporation of radiolabeled phosphate (^32P) into each kinase substrate is measured in the presence and absence of test compound. Results are reported as the percent decrease in the amount of ^32P incorporated into the substrate in the presence of compound, compared to buffer control.

Question: Which inhibition at 0.1 µM does the source give for Fc1ccc(-c2nc3occn3c2-c2ccnc(N[C@H]3CN4CCC3CC4)n2)cc1 [LXXXVII] here?
Answer: 1%

Same assay, conditions: 1 μM compound, 40 μM ATP; read-out: Percent inhibition CDK2/cyclinA

Question: Fc1ccc(-c2nc3occn3c2-c2ccnc(N[C@H]3CN4CCC3CC4)n2)cc1 [LXXXVII] was tested. Which inhibition at 1 µM did it give?
Answer: 0%

Target: T2, CK2 (Homo sapiens, UniProt P68400)
T2 construct: purchased Upstate (Charlottesville, Va.)
Test: Broad selectivity panel, 32P incorporation
Type: biochemical
Details: 0.1 μM compound, 40 μM ATP; read-out: Percent inhibition CK2
Method: as §1

T2 sequence (P68400 whole entry): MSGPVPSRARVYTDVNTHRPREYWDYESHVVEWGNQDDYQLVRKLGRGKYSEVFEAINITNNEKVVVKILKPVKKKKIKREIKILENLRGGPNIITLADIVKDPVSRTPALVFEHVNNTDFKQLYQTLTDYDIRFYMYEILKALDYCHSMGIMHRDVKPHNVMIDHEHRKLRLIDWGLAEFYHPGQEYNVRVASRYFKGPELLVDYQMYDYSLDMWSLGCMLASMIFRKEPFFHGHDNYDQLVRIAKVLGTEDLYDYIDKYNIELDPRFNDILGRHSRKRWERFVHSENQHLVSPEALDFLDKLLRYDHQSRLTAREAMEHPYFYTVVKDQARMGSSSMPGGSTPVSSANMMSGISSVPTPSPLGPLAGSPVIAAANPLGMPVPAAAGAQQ
T2 sequence (P67870 whole entry partner): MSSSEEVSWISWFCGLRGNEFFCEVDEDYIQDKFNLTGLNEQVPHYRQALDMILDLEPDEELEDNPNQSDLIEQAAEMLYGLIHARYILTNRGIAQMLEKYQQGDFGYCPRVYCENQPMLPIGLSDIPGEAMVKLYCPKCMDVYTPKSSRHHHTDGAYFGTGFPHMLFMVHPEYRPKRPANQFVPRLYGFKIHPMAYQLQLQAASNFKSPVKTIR

Question: For Fc1ccc(-c2nc3occn3c2-c2ccnc(N[C@H]3CN4CCC3CC4)n2)cc1 [LXXXVII], which inhibition at 0.1 µM is on record?
Answer: 4%

Same assay, conditions: 1 μM compound, 40 μM ATP; read-out: Percent inhibition CK2

Question: With Fc1ccc(-c2nc3occn3c2-c2ccnc(N[C@H]3CN4CCC3CC4)n2)cc1 [LXXXVII] as the compound, how does the inhibition at 1 µM read?
Answer: 4%

Target: T3, GSK3β (Homo sapiens, UniProt P49841)
T3 construct: purchased Upstate (Charlottesville, Va.)
Test: Broad selectivity panel, 32P incorporation
Type: biochemical
Details: 0.1 μM compound, 40 μM ATP; read-out: Percent inhibition GSK3β
Method: as §1

T3 sequence (P49841 whole entry, species assumed): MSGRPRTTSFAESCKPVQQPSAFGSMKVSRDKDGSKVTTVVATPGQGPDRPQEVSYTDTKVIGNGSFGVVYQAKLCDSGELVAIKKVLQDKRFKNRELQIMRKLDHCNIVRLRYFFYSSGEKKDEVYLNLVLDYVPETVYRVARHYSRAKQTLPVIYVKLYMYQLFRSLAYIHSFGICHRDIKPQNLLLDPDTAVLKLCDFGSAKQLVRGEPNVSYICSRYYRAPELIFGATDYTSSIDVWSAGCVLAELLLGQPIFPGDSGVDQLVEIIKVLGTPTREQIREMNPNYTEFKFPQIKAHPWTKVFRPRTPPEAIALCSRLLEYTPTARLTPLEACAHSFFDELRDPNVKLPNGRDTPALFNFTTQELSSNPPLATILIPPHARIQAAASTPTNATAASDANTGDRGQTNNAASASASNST

Question: Fc1ccc(-c2nc3occn3c2-c2ccnc(N[C@H]3CN4CCC3CC4)n2)cc1 [LXXXVII] was tested. Which inhibition at 0.1 µM did it give?
Answer: 6%

Same assay, conditions: 1 μM compound, 40 μM ATP; read-out: Percent inhibition GSK3β

Question: For Fc1ccc(-c2nc3occn3c2-c2ccnc(N[C@H]3CN4CCC3CC4)n2)cc1 [LXXXVII], which inhibition at 1 µM is on record?
Answer: 8%

Target: T4, JNK1α1 (Homo sapiens, UniProt P45983)
T4 construct: purchased Upstate (Charlottesville, Va.)
Test: Broad selectivity panel, 32P incorporation
Type: biochemical
Details: 0.1 μM compound, 40 μM ATP; read-out: Percent inhibition JNK1α1
Method: as §1

T4 sequence (P45983 1-384 isoform P45983-2, species assumed): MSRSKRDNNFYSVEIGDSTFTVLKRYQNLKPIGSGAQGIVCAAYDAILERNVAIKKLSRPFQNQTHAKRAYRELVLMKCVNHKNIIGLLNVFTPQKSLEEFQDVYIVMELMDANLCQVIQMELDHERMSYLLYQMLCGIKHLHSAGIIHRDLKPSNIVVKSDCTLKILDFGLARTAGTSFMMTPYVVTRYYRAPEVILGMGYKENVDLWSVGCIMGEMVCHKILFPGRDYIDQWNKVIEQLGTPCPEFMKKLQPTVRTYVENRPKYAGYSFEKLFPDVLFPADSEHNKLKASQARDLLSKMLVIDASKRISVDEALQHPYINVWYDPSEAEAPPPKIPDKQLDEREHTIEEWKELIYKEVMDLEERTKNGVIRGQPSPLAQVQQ

Question: How did the inhibition at 0.1 µM turn out when Fc1ccc(-c2nc3occn3c2-c2ccnc(N[C@H]3CN4CCC3CC4)n2)cc1 [LXXXVII] was run?
Answer: -25%

Same assay, conditions: 1 μM compound, 40 μM ATP; read-out: Percent inhibition JNK1α1

Question: Which inhibition at 1 µM does the source give for Fc1ccc(-c2nc3occn3c2-c2ccnc(N[C@H]3CN4CCC3CC4)n2)cc1 [LXXXVII] here?
Answer: 0%

Target: T5, MAPK2 (Homo sapiens, UniProt P28482)
T5 construct: purchased Upstate (Charlottesville, Va.)
Test: Broad selectivity panel, 32P incorporation
Type: biochemical
Details: 0.1 μM compound, 40 μM ATP; read-out: Percent inhibition MAPK2
Method: as §1

T5 sequence (P28482 whole entry): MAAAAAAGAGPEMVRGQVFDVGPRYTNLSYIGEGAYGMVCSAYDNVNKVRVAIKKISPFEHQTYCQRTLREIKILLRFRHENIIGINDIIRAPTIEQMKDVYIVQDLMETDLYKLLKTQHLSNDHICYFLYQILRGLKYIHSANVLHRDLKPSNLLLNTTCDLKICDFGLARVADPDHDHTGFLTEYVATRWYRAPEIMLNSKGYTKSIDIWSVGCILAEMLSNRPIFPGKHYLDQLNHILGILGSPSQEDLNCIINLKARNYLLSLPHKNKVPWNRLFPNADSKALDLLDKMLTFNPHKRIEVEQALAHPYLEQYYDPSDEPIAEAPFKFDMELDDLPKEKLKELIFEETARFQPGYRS

Question: Which inhibition at 0.1 µM does the source give for Fc1ccc(-c2nc3occn3c2-c2ccnc(N[C@H]3CN4CCC3CC4)n2)cc1 [LXXXVII] here?
Answer: -4%

Same assay, conditions: 1 μM compound, 40 μM ATP; read-out: Percent inhibition MAPK2

Question: Fc1ccc(-c2nc3occn3c2-c2ccnc(N[C@H]3CN4CCC3CC4)n2)cc1 [LXXXVII] was tested. Which inhibition at 1 µM did it give?
Answer: 14%

Target: T6, MEK1 (Homo sapiens, UniProt Q02750)
T6 construct: purchased Upstate (Charlottesville, Va.)
Test: Broad selectivity panel, 32P incorporation
Type: biochemical
Details: 0.1 μM compound, 40 μM ATP; read-out: Percent inhibition MEK1
Method: as §1

T6 sequence (Q02750 whole entry, species assumed): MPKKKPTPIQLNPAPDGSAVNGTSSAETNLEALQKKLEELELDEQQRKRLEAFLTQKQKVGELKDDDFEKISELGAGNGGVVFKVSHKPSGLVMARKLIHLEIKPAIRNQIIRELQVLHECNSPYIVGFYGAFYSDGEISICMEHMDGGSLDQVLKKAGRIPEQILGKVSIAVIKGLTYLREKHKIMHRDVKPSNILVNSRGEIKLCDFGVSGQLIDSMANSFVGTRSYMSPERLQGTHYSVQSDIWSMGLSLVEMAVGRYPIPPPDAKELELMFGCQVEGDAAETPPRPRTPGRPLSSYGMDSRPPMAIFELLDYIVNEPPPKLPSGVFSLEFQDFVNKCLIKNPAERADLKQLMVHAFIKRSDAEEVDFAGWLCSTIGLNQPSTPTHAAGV

Question: Which inhibition at 0.1 µM does the source give for Fc1ccc(-c2nc3occn3c2-c2ccnc(N[C@H]3CN4CCC3CC4)n2)cc1 [LXXXVII] here?
Answer: 3%

Same assay, conditions: 1 μM compound, 40 μM ATP; read-out: Percent inhibition MEK1

Question: How did the inhibition at 1 µM turn out when Fc1ccc(-c2nc3occn3c2-c2ccnc(N[C@H]3CN4CCC3CC4)n2)cc1 [LXXXVII] was run?
Answer: -1%

Target: T7, MKK6 (Homo sapiens, UniProt P52564)
T7 construct: purchased Upstate (Charlottesville, Va.)
T7 sequence (P52564 1-334): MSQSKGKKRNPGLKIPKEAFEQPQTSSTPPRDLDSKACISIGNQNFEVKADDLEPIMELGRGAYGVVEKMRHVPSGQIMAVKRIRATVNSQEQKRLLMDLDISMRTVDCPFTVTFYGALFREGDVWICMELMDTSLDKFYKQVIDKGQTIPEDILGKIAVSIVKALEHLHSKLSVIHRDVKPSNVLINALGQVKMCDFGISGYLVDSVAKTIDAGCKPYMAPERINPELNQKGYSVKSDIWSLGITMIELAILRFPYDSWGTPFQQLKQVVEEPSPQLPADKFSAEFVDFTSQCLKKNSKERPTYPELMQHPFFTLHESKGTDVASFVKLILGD
Test: Broad selectivity panel, 32P incorporation
Type: biochemical
Details: 0.1 μM compound, 40 μM ATP; read-out: Percent inhibition MKK6
Method: as §1

Question: For Fc1ccc(-c2nc3occn3c2-c2ccnc(N[C@H]3CN4CCC3CC4)n2)cc1 [LXXXVII], which inhibition at 0.1 µM is on record?
Answer: -4%

Same assay, conditions: 1 μM compound, 40 μM ATP; read-out: Percent inhibition MKK6

Question: Fc1ccc(-c2nc3occn3c2-c2ccnc(N[C@H]3CN4CCC3CC4)n2)cc1 [LXXXVII] was tested. Which inhibition at 1 µM did it give?
Answer: 54%

Target: T8, PDGFR α (Homo sapiens, UniProt P16234)
T8 construct: purchased Upstate (Charlottesville, Va.)
Test: Broad selectivity panel, 32P incorporation
Type: biochemical
Details: 0.1 μM compound, 40 μM ATP; read-out: Percent inhibition PDGFR α
Method: as §1

T8 sequence (P16234 24-1089, species assumed): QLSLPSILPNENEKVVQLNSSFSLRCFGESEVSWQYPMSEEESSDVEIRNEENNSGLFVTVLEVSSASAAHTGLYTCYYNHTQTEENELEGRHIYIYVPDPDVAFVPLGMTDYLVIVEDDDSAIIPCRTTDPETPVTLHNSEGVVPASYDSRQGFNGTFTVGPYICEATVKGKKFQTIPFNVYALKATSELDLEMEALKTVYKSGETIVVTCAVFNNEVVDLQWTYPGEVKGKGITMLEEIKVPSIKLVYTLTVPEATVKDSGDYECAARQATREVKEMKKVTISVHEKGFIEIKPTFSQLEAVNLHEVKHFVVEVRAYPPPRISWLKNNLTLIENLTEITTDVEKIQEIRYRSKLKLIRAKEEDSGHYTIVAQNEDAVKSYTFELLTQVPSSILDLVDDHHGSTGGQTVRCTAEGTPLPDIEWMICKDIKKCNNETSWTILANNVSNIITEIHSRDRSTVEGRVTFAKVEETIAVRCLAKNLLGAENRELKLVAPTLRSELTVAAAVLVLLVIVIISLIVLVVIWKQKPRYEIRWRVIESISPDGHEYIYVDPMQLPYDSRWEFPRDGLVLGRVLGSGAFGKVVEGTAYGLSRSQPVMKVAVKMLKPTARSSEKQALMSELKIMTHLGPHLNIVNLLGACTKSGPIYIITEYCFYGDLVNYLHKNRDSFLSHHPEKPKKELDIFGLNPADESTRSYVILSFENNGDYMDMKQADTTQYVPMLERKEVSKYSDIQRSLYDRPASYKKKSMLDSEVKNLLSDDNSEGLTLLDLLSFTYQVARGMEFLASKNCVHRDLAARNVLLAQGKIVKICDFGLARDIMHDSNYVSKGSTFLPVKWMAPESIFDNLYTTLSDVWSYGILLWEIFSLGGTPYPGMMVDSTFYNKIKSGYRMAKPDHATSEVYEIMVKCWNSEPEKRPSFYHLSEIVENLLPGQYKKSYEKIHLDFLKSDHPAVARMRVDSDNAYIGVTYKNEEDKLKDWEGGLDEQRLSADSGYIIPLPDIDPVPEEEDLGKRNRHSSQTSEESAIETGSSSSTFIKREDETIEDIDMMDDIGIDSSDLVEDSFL

Question: Which inhibition at 0.1 µM does the source give for Fc1ccc(-c2nc3occn3c2-c2ccnc(N[C@H]3CN4CCC3CC4)n2)cc1 [LXXXVII] here?
Answer: -6%

Same assay, conditions: 1 μM compound, 40 μM ATP; read-out: Percent inhibition PDGFR α

Question: With Fc1ccc(-c2nc3occn3c2-c2ccnc(N[C@H]3CN4CCC3CC4)n2)cc1 [LXXXVII] as the compound, how does the inhibition at 1 µM read?
Answer: -11%

Target: T9, PKA (Homo sapiens, UniProt P17612)
T9 construct: purchased Upstate (Charlottesville, Va.)
Test: Broad selectivity panel, 32P incorporation
Type: biochemical
Details: 0.1 μM compound, 40 μM ATP; read-out: Percent inhibition PKA
Method: as §1

Question: For Fc1ccc(-c2nc3occn3c2-c2ccnc(N[C@H]3CN4CCC3CC4)n2)cc1 [LXXXVII], which inhibition at 0.1 µM is on record?
Answer: -10%

Same assay, conditions: 1 μM compound, 40 μM ATP; read-out: Percent inhibition PKA

Question: Fc1ccc(-c2nc3occn3c2-c2ccnc(N[C@H]3CN4CCC3CC4)n2)cc1 [LXXXVII] was tested. Which inhibition at 1 µM did it give?
Answer: -6%

Target: T10, SAPK4 (Homo sapiens, UniProt O15264)
T10 construct: purchased Upstate (Charlottesville, Va.)
T10 sequence (O15264 1-365): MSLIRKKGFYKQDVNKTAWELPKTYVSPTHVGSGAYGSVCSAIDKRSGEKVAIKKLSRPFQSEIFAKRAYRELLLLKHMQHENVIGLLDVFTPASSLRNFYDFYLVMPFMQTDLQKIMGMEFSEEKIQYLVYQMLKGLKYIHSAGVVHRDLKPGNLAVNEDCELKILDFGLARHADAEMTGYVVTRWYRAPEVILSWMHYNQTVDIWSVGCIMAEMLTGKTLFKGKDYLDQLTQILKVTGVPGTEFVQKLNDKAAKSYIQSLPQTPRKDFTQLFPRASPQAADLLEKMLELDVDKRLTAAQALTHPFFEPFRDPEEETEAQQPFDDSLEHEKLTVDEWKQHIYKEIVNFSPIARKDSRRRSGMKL
Test: Broad selectivity panel, 32P incorporation
Type: biochemical
Details: 0.1 μM compound, 40 μM ATP; read-out: Percent inhibition SAPK4
Method: as §1

Question: Fc1ccc(-c2nc3occn3c2-c2ccnc(N[C@H]3CN4CCC3CC4)n2)cc1 [LXXXVII] was tested. Which inhibition at 0.1 µM did it give?
Answer: -3%

Same assay, conditions: 1 μM compound, 40 μM ATP; read-out: Percent inhibition SAPK4

Question: How did the inhibition at 1 µM turn out when Fc1ccc(-c2nc3occn3c2-c2ccnc(N[C@H]3CN4CCC3CC4)n2)cc1 [LXXXVII] was run?
Answer: -1%
